{
  "source": "patent US20190381086A1",
  "about": "“INHIBITION OF NEDDYLATION USING GLYCYL-tRNA SYNTHETASE INHIBITORS” (The Scripps Research Institute, priority 2015, published 2019)",
  "key": {"[1]": {"tested_on": "HCC-2998", "test": "NCI 60 Cell One-Dose Screen", "type": "cell-based, human", "settings": "HCC-2998, Colon Cancer; single dose 10^-5 M"}, "[2]": {"tested_on": "HL-60(TB)", "type": "cell-based"}, "[3]": {"tested_on": "TK-10", "type": "cell-based"}, "[4]": {"tested_on": "SR", "type": "cell-based", "settings": "Leukemia"}, "[5]": {"tested_on": "EKVX", "type": "cell-based", "settings": "Non-Small Cell Lung Cancer"}, "[6]": {"tested_on": "MOLT-4", "test": "NCI 60 Cell One-Dose Screen", "type": "cell-based, human", "settings": "MOLT-4, Leukemia; single dose 10^-5 M"}, "[7]": {"tested_on": "BT-549", "test": "NCI 60 Cell One-Dose Screen", "type": "cell-based, human", "settings": "BT-549, Breast Cancer; single dose 10^-5 M"}, "[8]": {"tested_on": "HT29", "type": "cell-based", "settings": "HT29, Colon Cancer"}, "[9]": {"tested_on": "SK-OV-3", "test": "NCI 60 Cell One-Dose Screen", "type": "cell-based, human", "settings": "SK-OV-3, Ovarian Cancer; single dose 10^-5 M"}, "[10]": {"tested_on": "KM12", "type": "cell-based", "settings": "KM12, Colon Cancer"}, "[11]": {"tested_on": "SR", "test": "NCI 60 Cell One-Dose Screen", "type": "cell-based, human", "settings": "Leukemia, single dose 10^-5 M"}, "[12]": {"tested_on": "MDA-MB-231/ATCC", "test": "NCI 60 Cell One-Dose Screen", "type": "cell-based, human", "settings": "Breast Cancer, single dose 10^-5 M"}, "[13]": {"tested_on": "SW-620", "test": "NCI 60 Cell One-Dose Screen", "type": "cell-based, human", "settings": "SW-620, Colon Cancer; single dose 10^-5 M"}, "[14]": {"tested_on": "ACHN", "type": "cell-based", "settings": "Renal Cancer"}, "[15]": {"tested_on": "MDA-MB-435", "type": "cell-based", "settings": "MDA-MB-435, Melanoma"}, "[16]": {"tested_on": "HCT-116", "type": "cell-based", "settings": "HCT-116, Colon Cancer"}, "[17]": {"tested_on": "UACC-62", "test": "NCI 60 Cell One-Dose Screen", "type": "cell-based, human", "settings": "UACC-62, Melanoma; single dose 10^-5 M"}, "[18]": {"tested_on": "UO-31", "type": "cell-based", "settings": "UO-31, Renal Cancer"}, "[19]": {"tested_on": "MCF7", "type": "cell-based", "settings": "MCF7, Breast Cancer"}, "[20]": {"tested_on": "SF-295", "type": "cell-based", "settings": "SF-295, CNS Cancer"}, "[21]": {"tested_on": "HCT-15", "test": "NCI 60 Cell One-Dose Screen", "type": "cell-based, human", "settings": "HCT-15, Colon Cancer; single dose 10^-5 M"}, "[22]": {"target": "S. aureus GlyRS (UniProt Q2FY08)", "settings": "read-out: IC50 (the inhibitor concentration at which GlyRS activity is reduced by half); cited from earlier work"}, "[23]": {"tested_on": "NCI/ADR-RES", "test": "NCI 60 Cell One-Dose Screen", "type": "cell-based, human", "settings": "Ovarian Cancer, single dose 10^-5 M"}, "[24]": {"tested_on": "RXF 393", "type": "cell-based", "settings": "RXF 393, Renal Cancer"}, "[25]": {"tested_on": "MDA-MB-468"}, "[26]": {"tested_on": "NCI-H226", "type": "cell-based", "settings": "NCI-H226, Non-Small Cell Lung Cancer"}, "[27]": {"tested_on": "SK-MEL-28", "test": "NCI 60 Cell One-Dose Screen", "type": "cell-based, human", "settings": "SK-MEL-28, Melanoma; single dose 10^-5 M"}, "[28]": {"tested_on": "SK-MEL-2", "type": "cell-based", "settings": "SK-MEL-2, Melanoma"}, "[29]": {"tested_on": "SF-539", "type": "cell-based", "settings": "SF-539, CNS Cancer"}, "[30]": {"tested_on": "NCI-H460", "test": "NCI 60 Cell One-Dose Screen", "type": "cell-based, human", "settings": "NCI-H460, Non-Small Cell Lung Cancer; single dose 10^-5 M"}, "[31]": {"tested_on": "786-0", "type": "cell-based", "settings": "786-0, Renal Cancer"}, "[32]": {"tested_on": "UO-31", "test": "NCI 60 Cell One-Dose Screen", "type": "cell-based, human", "settings": "UO-31, Renal Cancer; single dose 10^-5 M"}, "[33]": {"settings": "Homo sapiens, read-out: LC50 (the source's name)"}},
  "data": [
    {"compound": "NCC(=O)NS(=O)(=O)OC[C@H]1O[C@@H](n2cnc3c(N)ncnc32)[C@H](O)[C@@H]1O", "note": "[GlySA, glycylsulfamoyladenosine]", "values": [
      {"measurement": "Growth inhibition count (%)", "setting": "[1]", "value": 41.35, "unit": "%"},
      {"measurement": "LC50/GI50", "setting": "[2]; HL-60(TB), Leukemia", "value": ">36.3"},
      {"measurement": "GI50", "setting": "[2]; Homo sapiens, HL-60", "value": 2.75, "unit": "µM"},
      {"measurement": "GI50", "setting": "[3]; Homo sapiens, TK-10", "value": 2.75, "unit": "µM"},
      {"measurement": "CC50", "setting": "[3]; Homo sapiens, TK-10, Renal Cancer, read-out: LC50 (the source's name)", "value": 23.4, "unit": "µM"},
      {"measurement": "LC50/GI50", "setting": "[3]; TK-10, Renal Cancer", "value": 8.5},
      {"measurement": "GI50", "setting": "[4]; Homo sapiens", "value": 0.933, "unit": "µM"},
      {"measurement": "CC50", "setting": "[4]; [33]", "value": "> 100", "unit": "µM"},
      {"measurement": "LC50/GI50", "setting": "[4]", "value": ">107.2"},
      {"measurement": "GI50", "setting": "[5]; Homo sapiens", "value": 2.57, "unit": "µM"},
      {"measurement": "LC50/GI50", "setting": "[5]", "value": ">38.9"},
      {"measurement": "Growth inhibition count (%)", "setting": "[6]", "value": 1.146, "unit": "%"},
      {"measurement": "Growth inhibition count (%)", "setting": "[7]", "value": 21.06, "unit": "%"},
      {"measurement": "LC50/GI50", "setting": "[8]", "value": ">33.9"},
      {"measurement": "GI50", "setting": "[8]; Homo sapiens, HT-29", "value": 2.95, "unit": "µM"},
      {"measurement": "CC50", "setting": "[8]; Homo sapiens, HT-29, read-out: LC50 (the source's name)", "value": "> 100", "unit": "µM"},
      {"measurement": "Growth inhibition count (%)", "setting": "[9]", "value": 6.281, "unit": "%"},
      {"measurement": "GI50", "setting": "[10]; Homo sapiens", "value": 3.24, "unit": "µM"},
      {"measurement": "LC50/GI50", "setting": "[10]", "value": ">30.9"},
      {"measurement": "Growth inhibition count (%)", "setting": "[11]", "value": 9.926, "unit": "%"},
      {"measurement": "Growth inhibition count (%)", "setting": "[12]", "value": 2.608, "unit": "%"},
      {"measurement": "Growth inhibition count (%)", "setting": "[13]", "value": 3.712, "unit": "%"},
      {"measurement": "GI50", "setting": "[14]; Homo sapiens", "value": 2.88, "unit": "µM"},
      {"measurement": "CC50", "setting": "[14]; [33]", "value": 33.9, "unit": "µM"},
      {"measurement": "LC50/GI50", "setting": "[14]", "value": 11.7},
      {"measurement": "GI50", "setting": "[15]; Homo sapiens", "value": 1.82, "unit": "µM"},
      {"measurement": "LC50/GI50", "setting": "[15]", "value": 3.6},
      {"measurement": "LC50/GI50", "setting": "[16]", "value": ">31.6"},
      {"measurement": "GI50", "setting": "[16]; Homo sapiens", "value": 3.16, "unit": "µM"},
      {"measurement": "CC50", "setting": "[16]; [33]", "value": "> 100", "unit": "µM"},
      {"measurement": "Growth inhibition count (%)", "setting": "[17]", "value": 30.71, "unit": "%"},
      {"measurement": "GI50", "setting": "[18]; Homo sapiens", "value": 1.7, "unit": "µM"},
      {"measurement": "CC50", "setting": "[18]; [33]", "value": 6.17, "unit": "µM"},
      {"measurement": "LC50/GI50", "setting": "[18]", "value": 3.6},
      {"measurement": "GI50", "setting": "[19]; Homo sapiens", "value": 2.82, "unit": "µM"},
      {"measurement": "CC50", "setting": "[19]; [33]", "value": "> 100", "unit": "µM"},
      {"measurement": "LC50/GI50", "setting": "[19]", "value": ">35.5"},
      {"measurement": "GI50", "setting": "[20]; Homo sapiens", "value": 0.871, "unit": "µM"},
      {"measurement": "CC50", "setting": "[20]; [33]", "value": 6.92, "unit": "µM"},
      {"measurement": "LC50/GI50", "setting": "[20]", "value": 7.9},
      {"measurement": "Growth inhibition count (%)", "setting": "[21]", "value": 11.42, "unit": "%"},
      {"measurement": "IC50", "setting": "[22]", "value": "~2400", "unit": "µM"},
      {"measurement": "Growth inhibition count (%)", "setting": "[23]", "value": 2.073, "unit": "%"},
      {"measurement": "GI50", "setting": "[24]; Homo sapiens", "value": 2.14, "unit": "µM"},
      {"measurement": "CC50", "setting": "[24]; [33]", "value": 8.32, "unit": "µM"},
      {"measurement": "LC50/GI50", "setting": "[24]", "value": 3.9},
      {"measurement": "GI50", "setting": "[25]; Homo sapiens, MDA-MB-468", "value": 0.741, "unit": "µM"},
      {"measurement": "CC50", "setting": "[25]; Homo sapiens, MDA-MB-468, read-out: LC50 (μM)", "value": 7.59, "unit": "µM"},
      {"measurement": "LC50/GI50", "setting": "[25]; MDA-MB-468, Breast Cancer", "value": 10.2},
      {"measurement": "GI50", "setting": "[26]; Homo sapiens", "value": 2, "unit": "µM"},
      {"measurement": "CC50", "setting": "[26]; [33]", "value": 7.08, "unit": "µM"},
      {"measurement": "LC50/GI50", "setting": "[26]", "value": 3.5},
      {"measurement": "Growth inhibition count (%)", "setting": "[27]", "value": 8.357, "unit": "%"},
      {"measurement": "GI50", "setting": "[28]; Homo sapiens", "value": 2.24, "unit": "µM"},
      {"measurement": "CC50", "setting": "[28]; [33]", "value": 10, "unit": "µM"},
      {"measurement": "LC50/GI50", "setting": "[28]", "value": 4.5},
      {"measurement": "GI50", "setting": "[29]; Homo sapiens", "value": 1.45, "unit": "µM"},
      {"measurement": "CC50", "setting": "[29]; [33]", "value": 8.91, "unit": "µM"},
      {"measurement": "LC50/GI50", "setting": "[29]", "value": 6.2},
      {"measurement": "Growth inhibition count (%)", "setting": "[30]", "value": 3.35, "unit": "%"},
      {"measurement": "LC50/GI50", "setting": "[31]", "value": 3.8},
      {"measurement": "GI50", "setting": "[31]; Homo sapiens", "value": 1.78, "unit": "µM"},
      {"measurement": "CC50", "setting": "[31]; [33]", "value": 6.76, "unit": "µM"},
      {"measurement": "Growth inhibition count (%)", "setting": "[32]", "value": 6.084, "unit": "%"}
    ]}
  ]
}
